Patent publication US20250144067A1, “PERSONALIZED STARVATION THERAPY FOR CANCER” (Faeth Therapeutics, Inc., priority 2021, published 2025)
Structures can show the parent of a compound that is named as a salt. Where two headings read alike, the source gives them in different places.

Assays:
[1] = test system: NCI-H292 lung cancer cells; assay: FDA drug screening, complete media vs cholesterol-free media with simvastatin (TABLE 2); format: cell-based, human
[2] = test system: NCI-H292 lung cancer cells; assay: FDA drug screening, complete media vs cholesterol-free media without statin (TABLE 1); format: cell-based, human
[3] = NCI-H292 cells, cholesterol-free media without statin, FDA drug library screen
[4] = NCI-H292 cells, complete media, FDA drug library screen
[5] = NCI-H292 cells, FDA drug library screen, cholesterol-free media with simvastatin 0.04 μM
[6] = NCI-H292 cells, FDA drug library screen, complete media
[7] = complete media vs cholesterol-free media + simvastatin (0.04 μM), >0 enhanced anti-cancer activity, about 0 neutral, <0 antagonist
[8] = Complete minus Cholesterol-free, >0 enhanced anti-cancer activity, about 0 neutral, <0 antagonist
[9] = NCI-H292 cells, cholesterol-free media without statin
[10] = complete vs cholesterol-free media, greater than 0 enhanced anti-cancer activity, about 0 neutral, below 0 antagonists
[11] = complete media minus cholesterol-free media + simvastatin, >0 enhanced anti-cancer activity, about 0 neutral, <0 antagonist
[12] = NCI-H292 cells, FDA library drug in cholesterol-free media with simvastatin 0.04 μM
[13] = NCI-H292 cells, FDA library drug in complete media
[14] = NCI-H292 cells, cholesterol-free media with simvastatin 0.04 μM, cell growth value in FDA drug screen
[15] = NCI-H292 cells, complete media, cell growth value in FDA drug screen
[16] = Complete minus Cholesterol-free, greater than 0 enhanced anti-cancer activity, about 0 neutral, below 0 antagonists
[17] = NCI-H292 cells in cholesterol-free media without statin
[18] = NCI-H292 cells in complete media

In the case of CC(C)[C@]12O[C@H]1[C@@H]1O[C@@]13[C@@]1(C)CCC4=C(COC4=O)[C@@H]1C[C@@H]1O[C@@]13C2=O [Triptonide], the “Cholesterol-free media + simvastatin (0.04 μM)” value ([1]; NCI-H292 cells, cholesterol-free media with simvastatin 0.04 μM, FDA drug library screen (TABLE 2)) is reported as 0.02446, the “Complete Media” value ([1]; NCI-H292 cells, complete media, FDA drug library screen (TABLE 2)) is reported as 0.02522 and the Difference ([1]; complete media minus cholesterol-free media + simvastatin (0.04 μM), […]) is reported as 0.00. The Difference ([2]; Complete minus Cholesterol-free, […]) was −0.01, the Cholesterol-free [2, 3] was 0.01808 and the Complete [2, 4] was 0.005807.
For Cc1c(C)c2c(c(C)c1O)CCC(C)(COc1ccc(CC3SC(=O)NC3=O)cc1)O2 (centres unmarked) [Troglitazone], the “Cholesterol-free media + simvastatin (0.04 μM)” value [1, 5] was 0.9725, the “Complete Media” value [1, 6] was 0.8929 and the Difference [1, 7] was −0.08. It also gave a Cholesterol-free [2, 3] of 0.7956, a Complete [2, 4] of 1.359 and a Difference ([2]; complete vs cholesterol-free media, >0 enhanced anti-cancer activity, about 0 neutral, <0 antagonist) of 0.56.
In the case of CN(C)CCOCC(=O)NC12CC3CC(CC(C3)C1)C2 [Tromantadine (hydrochloride)], the “Cholesterol-free media + simvastatin (0.04 μM)” value ([1]; NCI-H292 cells, drug in cholesterol-free media with simvastatin 0.04 μM) is reported as 1.251, the “Complete Media” value ([1]; NCI-H292 cells, drug in complete media) is reported as 1.005 and the Difference [1, 7] is reported as −0.25. For the same molecule, the Difference [2, 8] was −0.20, the Cholesterol-free [2, 9] was 0.9414 and the Complete ([2]; NCI-H292 cells, complete media) was 0.7414.
For Cl.NC(CO)(CO)CO [Trometamol (hydrochloride)], the “Cholesterol-free media + simvastatin (0.04 μM)” value [1] was 1.673, the “Complete Media” value [1] was 1.379 and the Difference [1] was −0.29. The Cholesterol-free [2] was 0.9218, the Complete [2] was 0.6947 and the Difference [2] was −0.23.
With NC(CO)(CO)CO [Trometamol] the “Cholesterol-free media + simvastatin (0.04 μM)” value [1, 5] was 1.116, the “Complete Media” value [1, 6] was 0.9694 and the Difference [1, 7] was −0.15. The Cholesterol-free [2, 9] was 1.471, the Complete ([2]; NCI-H292 cells, complete media) was 1.133 and the Difference [2, 10] was −0.34.
With CN1[C@@H]2CC[C@H]1C[C@@H](OC(=O)c1c[nH]c3ccccc13)C2 [Tropisetron (Hydrochloride)] the “Cholesterol-free media + simvastatin (0.04 μM)” value [1, 5] was 1.118, the “Complete Media” value [1, 6] was 0.9866 and the Difference [1, 7] was −0.13. For the same molecule, the Difference [2, 8] was −0.30, the Cholesterol-free [2, 9] was 1.166 and the Complete ([2]; NCI-H292 cells, complete media) was 0.8628.
In the case of CN1[C@@H]2CC[C@H]1C[C@@H](OC(=O)c1c[nH]c3ccccc13)C2 [Tropisetron], the “Cholesterol-free media + simvastatin (0.04 μM)” value [1, 5] is reported as 0.8445, the “Complete Media” value [1, 6] is reported as 1.139 and the Difference [1, 11] is reported as 0.29. For the same molecule, the Cholesterol-free [2, 9] was 1.242, the Complete ([2]; NCI-H292 cells, complete media) was 0.8867 and the Difference [2, 10] was −0.36.
For O=C(O[C@H]1C[C@H]2CC[C@@H](C1)[N+]21CCCC1)C(O)(c1ccccc1)c1ccccc1.[Cl-] [Trospium (chloride)], the “Cholesterol-free media + simvastatin (0.04 μM)” value [1, 12] was 2.08, the “Complete Media” value [1, 13] was 1.646 and the Difference ([1]; complete media vs cholesterol-free media + simvastatin (0.04 μM), […]) was −0.43. The Cholesterol-free [2, 3] was 1.278, the Complete [2, 4] was 1.859 and the Difference ([2]; complete vs cholesterol-free media, […]) was 0.58.
With N[C@@H]1[C@H]2CN(c3nc4c(cc3F)c(=O)c(C(=O)O)cn4-c3ccc(F)cc3F)C[C@@H]12 [Trovafloxacin] the “Cholesterol-free media + simvastatin (0.04 μM)” value [1, 14] was 1.092, the “Complete Media” value [1, 15] was 1.114 and the Difference [1, 11] was 0.02. For the same molecule, the Cholesterol-free [2, 9] was 1.186, the Complete ([2]; NCI-H292 cells, complete media) was 0.8678 and the Difference [2, 10] was −0.32.
With C[C@@H]1O[C@@H](OC[C@H]2O[C@@H](Oc3c(-c4ccc(OCCO)c(OCCO)c4)oc4cc(OCCO)cc(O)c4c3=O)[C@H](O)[C@@H](O)[C@@H]2O)[C@H](O)[C@H](O)[C@H]1O [Troxerutin] the “Cholesterol-free media + simvastatin (0.04 μM)” value [1, 14] was 0.8482, the “Complete Media” value [1, 15] was 0.9455 and the Difference [1, 11] was 0.10. It also gave a Difference ([2]; Complete minus Cholesterol-free, greater than 0 enhanced anti-cancer activity, about 0 neutral, below 0 antagonist) of −0.13, a Cholesterol-free ([2]; NCI-H292 cells, FDA drug library screen, cholesterol-free media without statin) of 1.15 and a Complete [2, 6] of 1.021.
In the case of COc1cc(C(=O)NC2CCCNC2)cc(OC)c1OC (centres unmarked) [Troxipide], the “Cholesterol-free media + simvastatin (0.04 μM)” value [1, 12] is reported as 1.578, the “Complete Media” value [1, 13] is reported as 1.185 and the Difference [1, 7] is reported as −0.39. The Difference [2, 16] was −0.70, the Cholesterol-free [2, 17] was 1.812 and the Complete [2, 18] was 1.111.
For Nc1cc(F)ccc1NC(=O)c1ccc(CNC(=O)/C=C/c2cccnc2)cc1 [Tucidinostat], the “Cholesterol-free media + simvastatin (0.04 μM)” value [1, 14] was 0.5739, the “Complete Media” value [1, 15] was 0.6176 and the Difference [1, 11] was 0.04. It also gave a Difference [2, 16] of −0.51, a Cholesterol-free [2, 17] of 1.245 and a Complete [2, 18] of 0.7308.
CC(C)(C)NCC(O)c1ccccc1Cl (centres unmarked) [Tulobuterol (hydrochloride)] was tested, and the “Cholesterol-free media + simvastatin (0.04 μM)” value [1, 5] was 1.041, the “Complete Media” value [1, 6] was 1.605 and the Difference [1, 11] was 0.56. For the same molecule, the Difference [2, 16] was −0.62 and the Complete [2, 18] was 0.9988.
In the case of CCCOc1ccc(S(=O)(=O)NCCC2CCCN2C)cc1-c1nc2c(CCC)nn(C)c2c(=O)[nH]1 (centres unmarked) [Udenafil], the “Cholesterol-free media + simvastatin (0.04 μM)” value [1, 14] is reported as 1.921, the “Complete Media” value [1, 15] is reported as 2.002 and the Difference [1, 11] is reported as 0.08. It also gave a Difference [2, 8] of −0.28, a Cholesterol-free [2, 9] of 1.473 and a Complete ([2]; NCI-H292 cells, complete media) of 1.195.
